The source of these data is patent US20150183737A1, “COMPOSITIONS AND METHODS FOR SUBSTRATE-SELECTIVE INHIBITION OF ENDOCANNABINOID OXYGENATION” (Vanderbilt University, priority 2012, published 2015).

In assay [1] the target is T1, humanized rat FAAH (Rattus norvegicus, UniProt P97612, A377T/F194Y/I491V/L192F/S435N/V495M).
T1 sequence (P97612 30-579 L192F/F194Y/A377T/S435N/I491V/V495M limits assumed): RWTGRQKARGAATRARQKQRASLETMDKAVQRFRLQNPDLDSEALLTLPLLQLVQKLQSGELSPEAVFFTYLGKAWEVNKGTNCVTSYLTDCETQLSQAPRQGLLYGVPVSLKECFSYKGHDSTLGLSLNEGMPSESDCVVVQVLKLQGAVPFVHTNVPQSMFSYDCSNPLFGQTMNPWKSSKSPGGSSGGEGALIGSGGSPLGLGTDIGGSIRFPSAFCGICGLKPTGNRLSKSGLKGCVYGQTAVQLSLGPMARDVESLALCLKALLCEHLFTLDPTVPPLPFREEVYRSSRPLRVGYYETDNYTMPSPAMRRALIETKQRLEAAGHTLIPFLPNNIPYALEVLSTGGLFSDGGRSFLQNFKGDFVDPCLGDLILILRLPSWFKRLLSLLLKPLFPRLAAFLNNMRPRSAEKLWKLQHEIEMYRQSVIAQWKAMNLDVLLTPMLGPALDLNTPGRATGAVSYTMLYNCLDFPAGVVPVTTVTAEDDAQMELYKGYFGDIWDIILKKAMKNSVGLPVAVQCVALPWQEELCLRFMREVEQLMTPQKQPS
Briefly: FAAH activity (Compound A). It is filed as biochemical. The conditions noted are these: in vitro.

Assay [2] concerns the target T2, human MGL-His (MAGL) (Homo sapiens, UniProt Q99685).
T2 construct: His; made in house; host or cells: E. coli BL21(DE3) pLysS
T2 sequence (Q99685 1-303): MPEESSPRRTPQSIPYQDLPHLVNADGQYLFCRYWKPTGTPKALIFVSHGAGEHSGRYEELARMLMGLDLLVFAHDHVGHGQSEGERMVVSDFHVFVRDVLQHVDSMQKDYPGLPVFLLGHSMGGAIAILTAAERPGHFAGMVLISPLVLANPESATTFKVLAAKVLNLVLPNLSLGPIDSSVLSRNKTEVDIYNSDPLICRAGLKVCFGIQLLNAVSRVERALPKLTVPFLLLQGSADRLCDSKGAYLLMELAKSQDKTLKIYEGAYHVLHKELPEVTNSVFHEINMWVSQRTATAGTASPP
Description: MAGL activity (Compound A). The conditions noted are these: in vitro. It is filed as biochemical.

SMILES strings stand for the structures.

As for `COc1ccc2c(c1)c(CC(=O)N1CCOCC1)c(C)n2C(=O)c1ccc(Cl)cc1` [Compound A, 2-[1-(4-Chloro-benzoyl)-5-methoxy-2-methyl-1H-indol-3-yl]-1-morpholin-4-yl-ethanone], the “Inhibition of FAAH” value in assay [1] is on record as “did not inhibit”. Further, the “Inhibition of MAGL” value in assay [2] is “did not inhibit”.
